{
  "source": "patent US9758529B2",
  "about": "“Fused dihydro-4H-pyrazolo[5,1-C][1,4]oxazinyl compounds and analogs for treating CNS disorders” (Sunovion Pharmaceuticals Inc., priority 2015, dated 2017)",
  "data": [
    {"test_system": "mice", "experiment": "Neuropharmacological Assay (SmartCube)", "format": "in vivo", "conditions": "i.p. 15 min before behavioral test; 3 doses, most efficacious dose(s) presented", "excerpt": "Neurosci. […] As reported in Roberds, because psychiatric diseases generally result from disorders of cell-cell communication or circuitry, intact systems are useful in detecting improvement in disease-relevant endpoints. These endpoints are typically behavioral in nature, often requiring human observation and interpretation. To facilitate testing of multiple compounds for behavioral effects relevant to psychiatric disease, PsychoGenics, Inc. (Tarrytown, N.Y., “PGI”) developed SmartCube™, an automated system in which behaviors of compound-treated mice are captured by digital video and analyzed with computer algorithms. […] PGI Analytical Systems uses data from SmartCube™ to compare the behavioral signature of a test compound to a database of behavioral signatures obtained using a large set of diverse reference compounds. (The composition of the database as well as validation of the method is further described in Roberds). In this way, the neuropharmacological effects of a test compound can be predicted by similarity to major classes of compounds, such as antipsychotics, anxiolytics and antidepressants.\nThe SmartCube™ system produces an activity signature indicating the probability that the activity of the test compound at the administered dose matches a given class of neuropharmacological agents. (See, e.g., Roberds, FIGS. 2 and 3). The test compound is simultaneously compared against multiple classes of agents; thus, a separate probability is generated for each behavioral effect measured (e.g., anxiolytic activity, analgesic activity, etc.). In Table 2 and 2B, these probabilities are reported for each behavioral effect measured as follows:\nwhere LOQ is the limit of quantification.\nProvided compounds were dissolved in a mixture of Pharmasolve™ (N-methyl-2-pyrrolidone), polyethylene glycol and propylene glycol, and were injected i.p. 15 min. before the behavioral test. For each compound, injections were administered at 3 different doses. For each behavioral effect measured, results for the most efficacious dose(s) are presented.", "values": [
      {"molecule": "Cl.c1ccc2c3n(nc2c1)CCO[C@@H]3[C@@H]1COCCN1", "note": "(racemic) [Compound 45, (+/−)—(S)-3-((R)-3,4-dihydro-1H-[1,4]oxazino[4,3-b]indazol-1-yl)morpholin-4-ium chloride]", "AD: ADHD (probability of class match)": "+ (LOQ≦ + <5%)", "AG: analgesic (probability of class match)": "+ (LOQ≦ + <5%)", "AX: anxiolytic (probability of class match)": "+ (LOQ≦ + <5%)", "CE: cognitive enhancer (probability of class match)": "+ (LOQ≦ + <5%)", "DP: anti-depressant (probability of class match)": "+ (LOQ≦ + <5%)", "HA: hallucinogen (probability of class match)": "+ (LOQ≦ + <5%)", "MS: mood stabilizer (probability of class match)": "+ (LOQ≦ + <5%)", "PS: anti-psychotic (probability of class match)": "+ (LOQ≦ + <5%)", "SD: sedative hypnotic (probability of class match)": "+ (LOQ≦ + <5%)", "UN: uncharacterized CNS activity (probability of class match)": "+ (LOQ≦ + <5%)", "XG: anxiogenic (probability of class match)": "+ (LOQ≦ + <5%)"},
      {"molecule": "Cl.c1ccc2c3n(nc2c1)CCO[C@H]3[C@@H]1COCCN1", "note": "(racemic) [Compound 46, (+/−)—(S)-3-((S)-3,4-dihydro-1H-[1,4]oxazino[4,3-b]indazol-1-yl)morpholin-4-ium chloride]", "AD: ADHD (probability of class match)": "+ (LOQ≦ + <5%)", "AG: analgesic (probability of class match)": "++ (5%≦ ++ <25%)", "AX: anxiolytic (probability of class match)": "++ (5%≦ ++ <25%)", "CE: cognitive enhancer (probability of class match)": "+ (LOQ≦ + <5%)", "DP: anti-depressant (probability of class match)": "+ (LOQ≦ + <5%)", "HA: hallucinogen (probability of class match)": "+ (LOQ≦ + <5%)", "MS: mood stabilizer (probability of class match)": "+ (LOQ≦ + <5%)", "PS: anti-psychotic (probability of class match)": "++ (5%≦ ++ <25%)", "SD: sedative hypnotic (probability of class match)": "++ (5%≦ ++ <25%)", "UN: uncharacterized CNS activity (probability of class match)": "++ (5%≦ ++ <25%)", "XG: anxiogenic (probability of class match)": "+ (LOQ≦ + <5%)"},
      {"molecule": "CN1CCOC[C@H]1[C@H]1OCCn2nc3ccccc3c21", "note": "(racemic) [Compound 47, (+/−)-(3S,4R)-3-((R)-3,4-dihydro-1H-[1,4]oxazino[4,3-b]indazol-1-yl)-4-methylmorpholin-4-ium chloride]", "AD: ADHD (probability of class match)": "+ (LOQ≦ + <5%)", "AG: analgesic (probability of class match)": "++ (5%≦ ++ <25%)", "AX: anxiolytic (probability of class match)": "++ (5%≦ ++ <25%)", "CE: cognitive enhancer (probability of class match)": "+ (LOQ≦ + <5%)", "DP: anti-depressant (probability of class match)": "+ (LOQ≦ + <5%)", "HA: hallucinogen (probability of class match)": "+ (LOQ≦ + <5%)", "MS: mood stabilizer (probability of class match)": "+ (LOQ≦ + <5%)", "PS: anti-psychotic (probability of class match)": "+ (LOQ≦ + <5%)", "SD: sedative hypnotic (probability of class match)": "+ (LOQ≦ + <5%)", "UN: uncharacterized CNS activity (probability of class match)": "+ (LOQ≦ + <5%)", "XG: anxiogenic (probability of class match)": "+ (LOQ≦ + <5%)"},
      {"molecule": "CN1CCOC[C@H]1[C@@H]1OCCn2nc3ccccc3c21", "note": "(racemic) [Compound 48, (+/−)-(3S,4R)-3-((S)-3,4-dihydro-1H-[1,4]oxazino[4,3-b]indazol-1-yl)-4-methylmorpholin-4-ium chloride]", "AD: ADHD (probability of class match)": "+ (LOQ≦ + <5%)", "AG: analgesic (probability of class match)": "+ (LOQ≦ + <5%)", "AX: anxiolytic (probability of class match)": "+ (LOQ≦ + <5%)", "CE: cognitive enhancer (probability of class match)": "+ (LOQ≦ + <5%)", "DP: anti-depressant (probability of class match)": "+ (LOQ≦ + <5%)", "HA: hallucinogen (probability of class match)": "+ (LOQ≦ + <5%)", "MS: mood stabilizer (probability of class match)": "+ (LOQ≦ + <5%)", "PS: anti-psychotic (probability of class match)": "+ (LOQ≦ + <5%)", "SD: sedative hypnotic (probability of class match)": "+ (LOQ≦ + <5%)", "UN: uncharacterized CNS activity (probability of class match)": "+ (LOQ≦ + <5%)", "XG: anxiogenic (probability of class match)": "+ (LOQ≦ + <5%)"},
      {"molecule": "C[C@@H](N)[C@H]1OCCn2nc3ccccc3c21.Cl", "note": "(relative stereo) [Compound 30, (+/−)-rel-(R)-1-((R)-3,4-dihydro-1H-[1,4]oxazino[4,3-b]indazol-1-yl) ethanaminium chloride]", "AD: ADHD (probability of class match)": "++ (5%≦ ++ <25%)", "AG: analgesic (probability of class match)": "++ (5%≦ ++ <25%)", "AX: anxiolytic (probability of class match)": "+++ (25%≦ +++ <50%)", "CE: cognitive enhancer (probability of class match)": "+ (LOQ≦ + <5%)", "DP: anti-depressant (probability of class match)": "++ (5%≦ ++ <25%)", "HA: hallucinogen (probability of class match)": "++ (5%≦ ++ <25%)", "MS: mood stabilizer (probability of class match)": "+ (LOQ≦ + <5%)", "PS: anti-psychotic (probability of class match)": "+ (LOQ≦ + <5%)", "SD: sedative hypnotic (probability of class match)": "+ (LOQ≦ + <5%)", "UN: uncharacterized CNS activity (probability of class match)": "+ (LOQ≦ + <5%)", "XG: anxiogenic (probability of class match)": "+ (LOQ≦ + <5%)"},
      {"molecule": "CN[C@H](C)[C@H]1OCCn2nc3ccccc3c21.Cl", "note": "(relative stereo) [Compound 31, (+/−)-rel-(R)-1-((R)-3,4-dihydro-1H-[1,4]oxazino[4,3-b]indazol-1-yl)-N-methylethanaminium chloride]", "AD: ADHD (probability of class match)": "+ (LOQ≦ + <5%)", "AG: analgesic (probability of class match)": "++ (5%≦ ++ <25%)", "AX: anxiolytic (probability of class match)": "+++ (25%≦ +++ <50%)", "CE: cognitive enhancer (probability of class match)": "++ (5%≦ ++ <25%)", "DP: anti-depressant (probability of class match)": "++ (5%≦ ++ <25%)", "HA: hallucinogen (probability of class match)": "+ (LOQ≦ + <5%)", "MS: mood stabilizer (probability of class match)": "+ (LOQ≦ + <5%)", "PS: anti-psychotic (probability of class match)": "++ (5%≦ ++ <25%)", "SD: sedative hypnotic (probability of class match)": "+ (LOQ≦ + <5%)", "UN: uncharacterized CNS activity (probability of class match)": "+++ (25%≦ +++ <50%)", "XG: anxiogenic (probability of class match)": "+ (LOQ≦ + <5%)"},
      {"molecule": "C[C@H]([C@H]1OCCn2nc3ccccc3c21)N(C)C.Cl", "note": "(relative stereo) [Compound 32, (+/−)-rel-(R)-1-((R)-3,4-dihydro-1H-[1,4]oxazino[4,3-b]indazol-1-yl)-N,N-dimethylethanaminium chloride]", "AD: ADHD (probability of class match)": "+ (LOQ≦ + <5%)", "AG: analgesic (probability of class match)": "+ (LOQ≦ + <5%)", "AX: anxiolytic (probability of class match)": "++ (5%≦ ++ <25%)", "CE: cognitive enhancer (probability of class match)": "++ (5%≦ ++ <25%)", "DP: anti-depressant (probability of class match)": "++ (5%≦ ++ <25%)", "HA: hallucinogen (probability of class match)": "+ (LOQ≦ + <5%)", "MS: mood stabilizer (probability of class match)": "+ (LOQ≦ + <5%)", "PS: anti-psychotic (probability of class match)": "+++ (25%≦ +++ <50%)", "SD: sedative hypnotic (probability of class match)": "+ (LOQ≦ + <5%)", "UN: uncharacterized CNS activity (probability of class match)": "++ (5%≦ ++ <25%)", "XG: anxiogenic (probability of class match)": "+ (LOQ≦ + <5%)"}
    ]}
  ]
}
